“And” between values parts separate entries of the source, which are not always exact repeats. Identical values can stand only once. Like-named read-outs stand apart in the source and are kept apart here.
Columns and labels:
GX_P2V [1] = assay: microbe, parasite or virus in culture; assay type: cell-based, Guangxi pangolin-CoV (GX_P2V); conditions: for inhibition at 0.193125 µM / inhibition at 0.39 µM / inhibition at 0.49485 µM / inhibition at 0.79588 µM / inhibition at 1.09691 µM / inhibition at 0.78 µM / inhibition at 1.39794 µM / inhibition at 1.69897 µM: Vero C1008, 48 h, read-out: Percentage of Inhibition (%)
[2] = tested on: SARS-CoV-2 pseudotyped virus; assay: microbe, parasite or virus in culture; assay type: cell-based
[3] = tested on: SARS-CoV-2 live virus (SARS-CoV-2/WH-09/human/2020/CHN); assay: microbe, parasite or virus in culture; assay type: cell-based
PEDV strain CV777 = assay: microbe, parasite or virus in culture; assay type: cell-based, porcine epidemic diarrhea virus (PEDV)
[4] = tested on: SADS-CoV strain CN/GDWT/2017; assay: cells; assay type: cell-based, swine acute diarrhoea syndrome coronavirus (SADS-CoV)
[5] = tested on: SARS-CoV pseudotyped virus; assay: microbe, parasite or virus in culture; assay type: cell-based; conditions: for EC50: read-out: EC50 against SARS-CoV pseudotyped virus
[6] = tested on: MERS-CoV pseudotyped virus; assay: microbe, parasite or virus in culture; assay type: cell-based
GX_P2V [7] = assay: organism not typed; assay type: cell-based, Guangxi pangolin-CoV (GX_P2V); conditions: for inhibition at 6.25 µM: Vero C1008, read-out: Inhibition against GX_P2V, full-time treatment
SARS-CoV-2 trVLP [8] = assay type: cell-based
SARS-CoV-2 trVLP [9] = tested on: SARS-CoV-2 trVLP
in vitro [10] = conditions: African green monkey
in vitro [11] = conditions: human, Caco-2
in vitro [12] = conditions: human
SARS-CoV-2 trVLP [13] = assay: microbe, parasite or virus in culture
[14] = Severe acute respiratory syndrome coronavirus 2, Vero C1008, read-out: EC50 against diverse SARS-CoV-2-related viruses (summary statement)
[15] = Vero C1008, read-out: EC50 against GX_P2V
[16] = Severe acute respiratory syndrome coronavirus 2, 24 h, read-out: EC50 against SARS-CoV-2 pseudotyped virus
[17] = Severe acute respiratory syndrome coronavirus 2, Vero C1008, read-out: SARS-CoV-2 (Vero E6) EC50
[18] = Porcine epidemic diarrhea virus, Huh-7, read-out: EC50 against PEDV
[19] = Huh-7, read-out: EC50 against SADS-CoV
[20] = Severe acute respiratory syndrome coronavirus
[21] = Middle East respiratory syndrome-related coronavirus, Huh-7, read-out: EC50 against MERS-CoV pseudotyped virus
[22] = CC50, cytotoxicity to Huh 7 cells (Fig. 4B, SADS-CoV panel)
[23] = Severe acute respiratory syndrome coronavirus 2, read-out: EC50 SARS-CoV-2 trVLP
[24] = Vero C1008, read-out: EC50 GX_P2V
[25] = Severe acute respiratory syndrome coronavirus 2, read-out: EC50 SARS-CoV-2pseudotypedvirus
[26] = Vero C1008, read-out: EC50 against GX_P2V, repeated experiment

Row | Molecule | inhibition at 0.79588 µM (GX_P2V [1]) [%] | inhibition at 1.09691 µM (GX_P2V [1]) [%] | EC50 [3, 17] [µM] | EC50 (PEDV strain CV777; [18]) [µM] | EC50 [4, 19] [µM] | EC50 [5, 20] [µM] | EC50 [6, 21] [µM] | Time of addition of anti-GX_P2V activity, Entry (GX_P2V [7]) | Time of addition of anti-GX_P2V activity, Full-time (GX_P2V [7]) | Time of addition of anti-GX_P2V activity, Post-entry (GX_P2V [7]) | Time of addition of anti-SARS-CoV-2 trVLPs activity, Entry (SARS-CoV-2 trVLP [8]) | Time of addition of anti-SARS-CoV-2 trVLPs activity, Full-time (SARS-CoV-2 trVLP [8]) | Time of addition of anti-SARS-CoV-2 trVLPs activity, Post-entry (SARS-CoV-2 trVLP [8]) | SI (SARS-CoV-2 trVLP, Caco 2-N) (SARS-CoV-2 trVLP [9]) | CC50 at 48 h (in vitro [10]) [µM] | CC50 at 48 h (in vitro [11]) [µM] | CC50 (in vitro [12]) [µM] | CC50 (in vitro [12]; [22]) [µM] | EC50 (SARS-CoV-2 trVLP [13]; [23]) [µM] | EC50 (GX_P2V [1]; [24]) [µM] | further results
1 | COc1ccc2cc1Oc1ccc(cc1)C[C@H]1c3c(cc4c(c3Oc3cc5c(cc3OC)CCN(C)[C@@H]5C2)OCO4)CCN1C [Cepharanthine, reference compound] | 96.7 | 100 | 2.19 | 0.2 | 1.03 | 1.37 | 2.19 | 88.370 and 86.873 and 86.696 | 99.145 and 99.093 and 99.139 | 88.656 and 88.646 and 88.662 | 63.189 and 64.430 and 67.089 | 95.064 and 95.621 and 95.146 | 74.095 and 72.335 and 71.421 | > 31.25 | > 12.5 | > 50 | 11 | > 12.5 | 1.6 |  | EC50 (GX_P2V [1]; [14]): < 2 µM; inhibition at 0.193125 µM (GX_P2V [1]): 46.4%; inhibition at 0.39 µM (GX_P2V [1]): 20.4%; inhibition at 0.49485 µM (GX_P2V [1]): 77.8%; EC50 (GX_P2V [1]; [15]): 1.78 µM; EC50 [2, 16]: 0.74 µM; Percentage of Inhibition (%) (PEDV strain CV777): 99.988%; EC50 ([4]; Huh-7, read-out: EC50 SADS): 0.4 µM; Percentage of Inhibition (%) [5]: 99.382% and 89.647%; Percentage of Inhibition (%) [6]: 24.735%
2 | cycleanine |  |  |  |  |  |  |  | 60.950 and 60.215 and 58.803 | 92.758 and 93.389 and 93.191 | 62.451 and 61.926 and 63.133 | 37.174 and 37.913 and 46.924 | 60.248 and 61.546 and 62.312 | 56.735 and 54.305 and 57.336 | > 32.68 |  |  |  |  |  |  | Percentage of Inhibition (%) (GX_P2V [1]): 100%; EC50 (GX_P2V [1]; read-out: EC50 against GX_P2V): 1.49 µM; EC50 ([2]; read-out: EC50 SARS-CoV-2pseudotypedvirus): 6.54 µM; EC50 ([3]; read-out: SARS-CoV-2 (Vero E6) EC50): 8.91 µM; EC50 (PEDV strain CV777; read-out: EC50 against PEDV): 0.34 µM; EC50 ([4]; read-out: EC50 against SADS-CoV): 2.77 µM; EC50 [5]: 3.2 µM; EC50 ([6]; read-out: EC50 against MERS-CoV pseudotyped virus): 2.45 µM; EC50 (SARS-CoV-2 trVLP [9]; read-out: EC50 SARS-CoV-2 trVLP): 1.53 µM; CC50 (Huh 7 cells): > 12.5 µM
3 | COc1ccc2cc1Oc1ccc(cc1)C[C@H]1c3cc(c(OC)cc3CCN1C)Oc1c(O)c(OC)cc3c1[C@H](C2)N(C)CC3 [Fangchinoline, fangchinoline] | 95.4 | 100 | 5.01 | 0.2 | 2.23 | 1.73 | 4.47 | 98.527 and 98.293 and 98.495 | 99.636 and 99.587 and 99.561 | 96.715 and 95.065 and 93.301 | 64.788 and 62.324 and 70.383 | 98.422 and 98.513 and 99.025 | 80.036 and 76.348 and 75.577 | 24.05 | > 12.5 | 46.4 | 12.3 | > 12.5 | 1.93 | 1.97 | EC50 (GX_P2V [1]; [14]): < 2 µM; inhibition at 0.39 µM (GX_P2V [1]): 21%; inhibition at 0.49485 µM (GX_P2V [1]): 97.5%; inhibition at 0.78 µM (GX_P2V [1]): 14%; Percentage of Inhibition (%), SARS-CoV-2 pseudotyped virus [2]: 100%; EC50 [2, 16]: 1.16 µM; Percentage of Inhibition (%) (SARS-CoV-2 trVLP [9]): 100%
4 | COc1ccc2cc1Oc1ccc(cc1)C[C@H]1c3cc(c(OC)cc3CCN1C)Oc1c(OC)c(OC)cc3c1[C@H](C2)N(C)CC3 [Tetrandrine, reference compound] | 70.2 | 100 | 3.13 | 0.44 | 2.19 | 3.04 | 2.17 | 99.931 and 99.920 | 99.968 and 99.974 and 99.976 | 99.868 and 99.847 and 99.852 | 36.455 and 44.889 and 48.206 | 99.957 and 99.767 and 99.878 | 89.364 and 97.266 and 89.859 | > 17.86 | 21.9 | > 50 | 11.7 | > 12.5 | 2.8 | 5.21 | inhibition at 0.49485 µM (GX_P2V [1]): 11.3%; inhibition at 1.39794 µM (GX_P2V [1]): 100%; inhibition at 1.69897 µM (GX_P2V [1]): 100%; EC50 [2, 25]: 3.2 µM; Percentage of Inhibition (%) [5]: 99.687%; Percentage of Inhibition (%) [6]: 99.674% and 99.511%; CC50 (in vitro [10]): 21.9 µM
5 | COc1cc2c3cc1Oc1c(OC)c(OC)cc4c1[C@@H](Cc1ccc(O)c(c1)Oc1ccc(cc1)C[C@@H]3N(C)CC2)N(C)CC4 [Berbamine, berbamine] | 33.8 | 96.4 | 19.9 | 0.5 | 5.84 | 5.55 | 3.37 | 53.007 and 53.569 and 52.218 | 99.845 and 99.848 and 99.866 | 93.479 and 93.373 and 93.128 | 49.832 and 46.966 and 50.173 | 90.853 and 91.022 and 89.926 | 85.087 and 83.404 and 83.155 | > 6.13 | > 50 | > 50 |  | > 25 | 8.15 | 6.92 | inhibition at 1.39794 µM (GX_P2V [1]): 100%; inhibition at 1.69897 µM (GX_P2V [1]): 100%; EC50 [2, 16]: 1.87 µM; EC50 ([4]; Huh-7, read-out: EC50 SADS): 3.33 µM; CC50 at 48 h (in vitro [12]): > 25 µM
6 | COc1cc2c(cc1O)[C@@H](Cc1ccc(O)c(Oc3ccc(C[C@@H]4c5cc(OC)c(OC)cc5CCN4C)cc3)c1)N(C)CC2 [Daurisoline, daurisoline] |  |  | 12.5 | 0.82 | 2.8 | 2.76 | 2.46 | 73.500 and 68.250 and 70.810 | 99.980 | 90.220 and 88.260 and 87.780 | 21.082 and 20.351 and 25.494 | 69.364 and 69.350 and 65.328 | 59.015 and 61.872 and 61.323 | > 35.21 | > 50 | > 50 | > 12.5 |  |  |  | inhibition at 0.193125 µM (GX_P2V [1]): 6.47%; inhibition at 0.78 µM (GX_P2V [1]): 63%; inhibition at 1.39794 µM (GX_P2V [1]): 100%; inhibition at 1.69897 µM (GX_P2V [1]): 100%; EC50 (GX_P2V [1]; [15]): ~14.1 µM; EC50 (GX_P2V [1]; [26]): 10.6 µM; EC50 [2, 25]: 8.48 µM; inhibition at 6.25 µM (GX_P2V [7]): ~100%; EC50 (SARS-CoV-2 trVLP [13]; Severe acute respiratory syndrome coronavirus 2, read-out: EC50 against SARS-CoV-2 trVLP): 1.42 µM
7 | COc1cc2c(cc1OC)[C@@H](Cc1ccc(Oc3cc(C[C@@H]4c5cc(OC)c(OC)cc5CCN4C)ccc3O)cc1)N(C)CC2 [Dauricine, dauricine] |  | 10.1 |  | 1.7 | 0.84 | 2.63 | 2.13 |  | 94.280 and 92.940 and 93.040 | 24.420 and 36.380 and 19.300 | 75.941 and 76.217 and 74.799 | 87.622 and 86.812 and 85.889 | 74.686 and 90.971 and 75.807 | > 17.61 | > 50 | > 50 |  | > 12.5 | 2.84 | 15.7 | inhibition at 1.39794 µM (GX_P2V [1]): 95.2%; inhibition at 1.69897 µM (GX_P2V [1]): 100%; EC50 (GX_P2V [1]; [26]): 13.1 µM; EC50 [2, 25]: 6.58 µM; Percentage of Inhibition (%) (PEDV strain CV777): 99.987%; Percentage of Inhibition (%) [4]: 99.922%; Stage of the viral life cycle affected (time-of-addition) (GX_P2V [7]): superior inhibitory activity during the entry stage compared with the post-entry stage; inhibition at 6.25 µM (GX_P2V [7]): ~100%; CC50 at 48 h (in vitro [12]): > 25 µM

Source: publication PMC10879537 (Nature Communications, 2024)
